Results taken from US20170247326A1, “Substituted Pyrrolidine Carboxamide Compounds” (EPIZYME, INC., priority 2014, published 2017).

molecular target: T1, SMYD2 (Homo sapiens, UniProt Q9NRG4); assay: SMYD2 biochemical assay (3H-SAM, biotinylated peptide substrate, Flashplate); details: Table 1; average of n = 1 to n = 50; read-out: SMYD2 Biochem IC50
T1 construct: Full length SMYD2 (NP_064582.2) was cloned; His6 (N, cleaved yes); FLAG (N); made in house; host or cells: Sf9 insect cells
How it was run: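 Full-length His/FLAG-tagged SMYD2 (tag removed, Sf9-expressed) at 1.5 nM was preincubated with compound for 30 min at room temperature in Bicine pH 7.6 buffer with 2% DMSO. Reaction used 10 nM 3H-SAM and 60 nM biotinylated peptide, stopped with 600 uM cold SAM. Streptavidin-captured 3H-peptide counted; IC50 from 3- or 4-parameter fit.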

T1 sequence (Q9NRG4 whole entry): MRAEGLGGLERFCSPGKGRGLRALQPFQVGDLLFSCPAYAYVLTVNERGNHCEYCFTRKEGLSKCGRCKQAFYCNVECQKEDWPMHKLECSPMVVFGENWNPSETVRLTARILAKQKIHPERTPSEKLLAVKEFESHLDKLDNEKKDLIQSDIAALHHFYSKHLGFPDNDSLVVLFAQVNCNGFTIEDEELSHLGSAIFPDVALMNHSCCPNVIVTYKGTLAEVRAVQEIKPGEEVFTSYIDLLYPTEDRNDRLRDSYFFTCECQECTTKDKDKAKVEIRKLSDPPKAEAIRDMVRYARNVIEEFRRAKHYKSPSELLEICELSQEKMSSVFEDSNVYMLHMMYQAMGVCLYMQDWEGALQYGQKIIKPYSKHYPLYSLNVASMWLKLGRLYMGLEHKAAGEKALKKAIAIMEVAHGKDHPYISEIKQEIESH

| IC50 [µM] | Compound |
| --- | --- |
| > 50 | C[C@H]1CN(C2CC2)C[C@@H]1NC(=O)c1ccc2c(c1)OC(F)(F)O2 (racemic) [compound 1, (±)-trans-N-(1-cyclopropyl-4-methylpyrrolidin-3-yl)-2,2-difluorobenzo[d][1,3]dioxole-5-carboxamide] |
| > 50 | CC1Oc2ccc(C(=O)N[C@@H]3CN(C4CC4)C[C@@H]3C)cc2NC1=O (mixture of isomers) [compound 8, (±)-cis-N-(1-cyclopropyl-4-methylpyrrolidin-3-yl)-2-methyl-3-oxo-3,4-dihydro-2H-benzo[b][1,4]oxazine-6-carboxamide] |
| > 50 | C[C@H]1CN(C2CC2)C[C@@H]1NC(=O)c1ccc(N2CCCC2)cc1 (racemic) [compound 20, (±)-trans-N-(1-cyclopropyl-4-methylpyrrolidin-3-yl)-4-(pyrrolidin-1-yl)benzamide] |
| > 50 | C[C@H]1CN(C2CC2)C[C@H]1NC(=O)Cc1ccc2c(c1)NC(=O)CO2 (racemic) [compound 4, (±)-cis-N-(1-cyclopropyl-4-methylpyrrolidin-3-yl)-2-(3-oxo-3,4-dihydro-2H-benzo[b][1,4]oxazin-6-yl)acetamide] |
| > 50 | Cc1cc(C(=O)N[C@H]2CN(C3CC3)C[C@@H]2C)n(Cc2ccccc2)n1 (racemic) [compound 9, (±)-trans-1-benzyl-N-(1-cyclopropyl-4-methylpyrrolidin-3-yl)-3-methyl-1H-pyrazole-5-carboxamide] |
| > 50 | CC1Oc2ccc(C(=O)N[C@H]3CN(C4CC4)C[C@@H]3C)cc2NC1=O (mixture of isomers) [compound 7, (±)-trans-N-(1-cyclopropyl-4-methylpyrrolidin-3-yl)-2-methyl-3-oxo-3,4-dihydro-2H-benzo[b][1,4]oxazine-6-carboxamide] |
| 13.2 | C[C@H]1CN(C2CC2)C[C@@H]1NC(=O)c1cn(C2CC2)nn1 (racemic) [compound 18, (±)-trans-1-cyclopropyl-N-(1-cyclopropyl-4-methylpyrrolidin-3-yl)-1H-1,2,3-triazole-4-carboxamide] |

same assay, conditions: Table 3; average of n = 1 to n = 50; read-out: SMYD2 Biochem IC50

| Compound | IC50 [µM] |
| --- | --- |
| CC(C)N1C[C@H](NC(=O)c2cnn(C(C)C)c2)[C@@H](C)C1 (racemic) [compound 47, (±)-trans-N-[4-methyl-1-(propan-2-yl)pyrrolidin-3-yl]-1-(propan-2-yl)-1H-pyrazole-4-carboxamide] | > 50 |
| CC(C)N1C[C@@H](C)[C@H](NC(=O)c2ccc3c(c2)OCC(=O)N3)C1 (racemic) [compound 28, (±)-trans-N-[4-methyl-1-(propan-2-yl)pyrrolidin-3-yl]-3-oxo-3,4-dihydro-2H-1,4-benzoxazine-7-carboxamide] | > 50 |
| (±)-cis-N-(1-((2-aminoethyl)sulfonyl)-4-methylpyrrolidin-3-yl)-5-cyclopmpylpyridazine-3-carboxamide [compound 113] | > 50 |
| CC(C)N1CCC(C(=O)Nc2cc(O)c3c(c2)OCC(=O)N3)C1 (stereo not drawn) [compound 87, N-(5-hydroxy-3-oxo-3,4-dihydro-2H-1,4-benzoxazin-7-yl)-1-(propan-2-yl)pyrrolidine-3-carboxamide] | > 50 |
| CC(C)N1C[C@H](C)[C@H](NC(=O)c2cc3c(cn2)OC(F)(F)O3)C1 (racemic) [compound 75, (±)-cis-2,2-difluoro-N-[4-methyl-1-(propan-2-yl)pyrrolidin-3-yl]-2H-[1,3]dioxolo[4,5-c]pyridine-6-carboxamide] | > 50 |
| C[C@@H]1CN(Cc2ccc(OCc3ccccc3)cc2)C[C@H]1NC(=O)c1cn(C2CC2)nn1 (racemic) [compound 97, (±)-trans-N-(1-{[4-(benzyloxy)phenyl]methyl}-4-methylpyrrolidin-3-yl)-1-cyclopropyl-1H-1,2,3-triazole-4-carboxamide] | 10.5 |
| CC(C)N1C[C@H](C)[C@H](NC(=O)c2cc(O)c3c(c2)OCC(=O)N3)C1 (racemic) [compound 85, (±)-cis-5-hydroxy-N-[4-methyl-1-(propan-2-yl)pyrrolidin-3-yl]-3-oxo-3,4-dihydro-2H-1,4-benzoxazine-7-carboxamide] | > 50 |
| CC(C)N1C[C@@H](C)[C@H](NC(=O)c2ccc(C3CC3)c(=O)[nH]2)C1 (racemic) [compound 57, (±)-trans-5-cyclopropyl-N-[4-methyl-1-(propan-2-yl)pyrrolidin-3-yl]-6-oxo-1,6-dihydropyridine-2-carboxamide] | > 50 |

Second part, the compound after the results:

| IC50 [µM] | Compound |
| --- | --- |
| > 50 | CC(C)N1C[C@H](C)[C@H](NC(=O)c2nc(C3CC3)cs2)C1 (racemic) [compound 35, (±)-cis-4-cyclopropyl-N-[4-methyl-1-(propan-2-yl)pyrrolidin-3-yl]-1,3-thiazole-2-carboxamide] |
| 0.424 | CC(C)N1C[C@@H](C)[C@@H](NC(=O)c2cc(C3CC3)cnn2)C1 (stereo in doubt) [compound 110, (±)-cis-5-cyclopropyl-N-[4-methyl-1-(propan-2-yl)pyrrolidin-3-yl]pyridazine-3-carboxamide] |
| 0.694 | CC(C)N1C[C@H](C)[C@H](NC(=O)c2cc(C3CC3)ccn2)C1 (racemic) [compound 105, (±)-cis-4-cyclopropyl-N-[4-methyl-1-(propan-2-yl)pyrrolidin-3-yl]pyridine-2-carboxamide] |
| > 50 | CC(C)N1C[C@@H](C)[C@H](NC(=O)c2ncc(C3CC3)o2)C1 (racemic) [compound 73, (±)-trans-5-cyclopropyl-N-[4-methyl-1-(propan-2-yl)pyrrolidin-3-yl]-1,3-oxazole-2-carboxamide] |
| 0.781 | CC(C)N1C[C@H](C)[C@H](NC(=O)c2cn(C3CC3)nn2)C1 (racemic) [compound 27, (±)-cis-1-cyclopropyl-N-[4-methyl-1-(propan-2-yl)pyrrolidin-3-yl]-1H-1,2,3-triazole-4-carboxamide] |
| 24.3 | CC(C)N1C[C@@H](C)[C@H](NC(=O)c2ncc(C3CC3)[nH]2)C1 (racemic) [compound 74, (±)-trans-5-cyclopropyl-N-[4-methyl-1-(propan-2-yl)pyrrolidin-3-yl]-1H-imidazole-2-carboxamide] |
| 2.68 | CC(C)N1C[C@H](C)[C@H](NC(=O)c2nnc(C3CC3)s2)C1 (racemic) [compound 41, (±)-cis-5-cyclopropyl-N-[4-methyl-1-(propan-2-yl)pyrrolidin-3-yl]-1,3,4-thiadiazole-2-carboxamide] |
| 19.3 | CC(C)N1C[C@@H](C)[C@H](NC(=O)c2cn(C3CC3)nn2)C1 (racemic) [compound 26, (±)-trans-1-cyclopropyl-N-[4-methyl-1-(propan-2-yl)pyrrolidin-3-yl]-1H-1,2,3-triazole-4-carboxamide] |
| 36.8 | CC(C)N1C[C@H](C)[C@H](NC(=O)c2n[nH]c(C3CC3)n2)C1 (racemic) [compound 84, (±)-cis-5-cyclopropyl-N-[4-methyl-1-(propan-2-yl)pyrrolidin-3-yl]-1H-1,2,4-triazole-3-carboxamide] |
| > 50 | CC(C)N1C[C@@H](C)[C@H](NC(=O)c2ncc(C3CC3)cn2)C1 (racemic) [compound 66, (±)-trans-5-cyclopropyl-N-[4-methyl-1-(propan-2-yl)pyrrolidin-3-yl]pyrimidine-2-carboxamide] |
| 0.245 | CC(C)N1C[C@@H](C)[C@@H](NC(=O)c2cc(C3CC3)cnn2)C1 (stereo in doubt) [compound 101, rel-5-cyclopropyl-N-[(3R,4R)-4-methyl-1-(propan-2-yl)pyrrolidin-3-yl]pyridazine-3-carboxamide] |

same assay, conditions: Table 4; average of n = 1 to n = 50; read-out: SMYD2 Biochem IC50

| IC50 [µM] | Compound |
| --- | --- |
| 10.4 | CC(C)c1cnnc(C(=O)N[C@@H]2CN(C(C)C)C[C@@H]2C)c1 (racemic) [compound 124, rac-5-isopropyl-N-((3R,4R)-1-isopropyl-4-methylpyrrolidin-3-yl)pyridazine-3-carboxamide] |
| > 50 | C[C@H]1CN(S(=O)(=O)CCCN)C[C@H]1NC(=O)c1cc(C2CC2)cnn1 (racemic) [compound 126, rac-N-((3R,4R)-1-((3-aminopropyl)sulfonyl)-4-methylpyrrolidin-3-yl)-5-cyclopropylpyridazine-3-carboxamide] |
| 0.77 | CC(C)N1C[C@H](CO)[C@H](NC(=O)c2cc(C3CC3)cnn2)C1 (racemic) [compound 129, rac-5-cyclopropyl-N-((3R,4R)-4-(hydroxymethyl)-1-isopropylpyrrolidin-3-yl)pyridazine-3-carboxamide] |

system: esophageal, liver and breast cancer cell lines; assay: not given; details: dose-dependent; Nguyen et al. J Biol Chem. 2015; cited from earlier work

| Compound | proliferation of several esophageal, liver and breast cancer cell lines |
| --- | --- |
| Cc1cn(CCN2CCN(c3ccccc3-c3cc(C#N)cc(C(=O)NCCCN4CCCC4)c3)CC2)c2ccccc12 [LLY-507] | inhibited the proliferation |
